30 compounds from patent publication US9409884B2 (Rigel Pharmaceuticals, Inc., priority 2012, dated 2016) can be followed below.

The term EC50 denotes the concentration that produces a half-maximal response. Higher therefore signals lower potency in that assay.

For this assay, the target named is AMPK. As to the kind of experiment: AMPK activation, enzyme-linked immunosorbent assay. In kind it is biochemical. As to conditions: Table 13, compounds of Table 6. In a few lines: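 AMPK activation by test compounds was measured by enzyme-linked immunosorbent assay.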
In turn, `N#Cc1ccc(CN2CCC(NC(=O)c3cc4cc(C(=O)N5CCC(Oc6ccc(F)cc6)CC5)ccc4o3)CC2)cc1` [Compound 6-19, N-(1-(4-cyanobenzyl)piperidin-4-yl)-5-(4-(4-fluorophenoxy)piperidine-1-carbonyl)benzofuran-2-carboxamide] gave an EC50 of under 100 nM.
Take `COc1ccc(CN2CCC(NC(=O)c3cc4cc(NC(=O)C5CCN(c6ccc(C#N)cc6)CC5)ccc4o3)CC2)cc1` [Compound 6-21, 1-(4-cyanophenyl)-N-(2-(1-(4-methoxybenzyl)piperidin-4-ylcarbamoyl)benzofuran-5-yl)piperidine-4-carboxamide]: the EC50 is under 100 nM.
The compound `N#Cc1ccc(N2CCC(C(=O)Nc3ccc4oc(C(=O)N5CCC(Oc6ccc(C(F)(F)F)cc6)CC5)cc4c3)CC2)cc1` [Compound 6-22, 1-(4-cyanophenyl)-N-(2-(4-(4-(trifluoromethyl)phenoxy)piperidine-1-carbonyl)benzofuran-5-yl)piperidine-4-carboxamide] yielded a half-maximal effective concentration (EC50) of under 100 nM.
In the case of `COc1ccc(CN2CCC(NC(=O)c3cc4cc(NC(=O)c5ccc(Oc6ccc(F)cc6)cc5)ccc4o3)CC2)cc1` [Compound 6-23, 5-(4-(4-fluorophenoxy)benzamido)-N-(1-(4-methoxybenzyl)piperidin-4-yl)benzofuran-2-carboxamide] it was 100 to 1000 nM; in that of `O=C(Nc1ccc2oc(C(=O)N3CCC(Oc4ccc(C(F)(F)F)cc4)CC3)cc2c1)c1ccc(Oc2ccc(F)cc2)cc1` [Compound 6-24, 4-(4-fluorophenoxy)-N-(2-(4-(4-(trifluoromethyl)phenoxy)piperidine-1-carbonyl)benzofuran-5-yl)benzamide], under 100 nM.
In the case of `COc1ccc(CN2CCC(NC(=O)c3cc4cc(C(=O)N5CCC(Oc6ccc(C(F)(F)F)cc6)CC5)ccc4o3)CC2)cc1` [Compound 6-25, N-(1-(4-methoxybenzyl)piperidin-4-yl)-5-(4-(4-(trifluoromethyl)phenoxy)piperidine-1-carbonyl) benzofuran-2-carboxamide] it was under 100 nM.
Take `O=C(Nc1ccc(Oc2ccc(F)cc2)nc1)c1cc2cc(C(=O)N3CCC(Oc4ccc(C(F)(F)F)cc4)CC3)ccc2o1` [Compound 6-26, N-(6-(4-fluorophenoxy)pyridin-3-yl)-5-(4-(4-(trifluoromethyl)phenoxy)piperidine-1-carbonyl) benzofuran-2-carboxamide]: the EC50 was under 100 nM.
`N#Cc1ccc(CN2CCC(NC(=O)c3cc4cc(CN5CCC(Oc6ccc(C(F)(F)F)cc6)CC5)ccc4o3)CC2)cc1` [Compound 6-27, N-(1-(4-cyanobenzyl)piperidin-4-yl)-5-((4-(4-(trifluoromethyl)phenoxy)piperidin-1-yl)methyl) benzofuran-2-carboxamide] came in with an EC50 of under 100 nM.
Regarding `O=C(NC1CCN(Cc2cc(F)cc(F)c2)CC1)c1cc2cc(CN3CCC(Oc4ccc(C(F)(F)F)cc4)CC3)ccc2o1` [Compound 6-28, N-(1-(3,5-difluorobenzyl)piperidin-4-yl)-5-((4-(4-(trifluoromethyl)phenoxy)piperidin-1-yl)methyl) benzofuran-2-carboxamide], the EC50 is under 100 nM.
In the case of `O=C(Nc1ccc(Oc2ccc(F)cc2)nc1)c1cc2cc(CN3CCC(Oc4ccc(C(F)(F)F)cc4)CC3)ccc2o1` [Compound 6-29, N-(6-(4-fluorophenoxy)pyridin-3-yl)-5-((4-(4-(trifluoromethyl)phenoxy)piperidin-1-yl)methyl) benzofuran-2-carboxamide] it was under 100 nM; in that of `COc1ccc(CN2CCC(C(=O)Nc3ccc4oc(C(=O)NC5CCN(Cc6ccc(C#N)cc6)CC5)cc4c3)CC2)cc1` [Compound 6-40, N-(2-(1-(4-cyanobenzyl)piperidin-4-ylcarbamoyl)benzofuran-5-yl)-1-(4-methoxybenzyl)piperidine-4-carboxamide], 1000 to 10000 nM.
In the case of `N#Cc1ccc(CN2CCC(NC(=O)c3cc4cc(NC(=O)C5CCN(Cc6cnn(-c7ccccn7)c6)CC5)ccc4o3)CC2)cc1` [Compound 6-41, N-(2-(1-(4-cyanobenzyl)piperidin-4-ylcarbamoyl)benzofuran-5-yl)-1-((1-(pyridin-2-yl)-1H-pyrazol-4-yl)methyl)piperidine-4-carboxamide] it was 1000 to 10000 nM; in that of `N#Cc1ccc(CN2CCC(NC(=O)c3cc4cc(NC(=O)C5CCN(Cc6cnn(-c7ccc(C#N)cc7)c6)CC5)ccc4o3)CC2)cc1` [Compound 6-42, N-(2-(1-(4-cyanobenzyl)piperidin-4-ylcarbamoyl)benzofuran-5-yl)-1-((1-(4-cyanophenyl)-1H-pyrazol-4-yl)methyl)piperidine-4-carboxamide], 1000 to 10000 nM; in that of `N#Cc1ccc(CN2CCC(NC(=O)c3cc4cc(NC(=O)C5CCN(Cc6ccc(F)c(F)c6)CC5)ccc4o3)CC2)cc1` [Compound 6-43, N-(2-(1-(4-cyanobenzyl)piperidin-4-ylcarbamoyl)benzofuran-5-yl)-1-(3,4-difluorobenzyl)piperidine-4-carboxamide], 100 to 1000 nM.
For `N#Cc1ccc(CN2CCC(NC(=O)c3cc4cc(NC(=O)C5CCN(Cc6ccc(OC(F)(F)F)cc6)CC5)ccc4o3)CC2)cc1` [Compound 6-46, N-(2-(1-(4-cyanobenzyl)piperidin-4-ylcarbamoyl)benzofuran-5-yl)-1-(4-(trifluoromethoxy)benzyl) piperidine-4-carboxamide], the EC50 was 100 to 1000 nM.
In the case of `N#Cc1ccc(CN2CCC(NC(=O)c3cc4cc(NC(=O)C5CCN(Cc6ccc(C#N)c(F)c6)CC5)ccc4o3)CC2)cc1` [Compound 6-48, 1-(4-cyano-3-fluorobenzyl)-N-(2-(1-(4-cyanobenzyl)piperidin-4-ylcarbamoyl)benzofuran-5-yl)piperidine-4-carboxamide] it was 100 to 1000 nM.
On to `N#Cc1ccc(CN2CCC(NC(=O)c3cc4cc(NC(=O)C5CCN(Cc6ccc(C#N)cc6)CC5)ccc4o3)CC2)cc1` [Compound 6-49, l-(4-cyanobenzyl)-N-(2-(l-(4-cyanobenzyl)piperidin-4-ylcarbamoyl)benzofiiran-5-yl)piperidine-4-carbox amide], for which the EC50 was 100 to 1000 nM.
Consider `N#Cc1ccc(CN2CCC(NC(=O)c3cc4cc(NC(=O)C5CCN(Cc6ccc(C(F)(F)F)cc6)CC5)ccc4o3)CC2)cc1` [Compound 6-50, N-(2-(1-(4-cyanobenzyl)piperidin-4-ylcarbamoyl)benzofuran-5-yl)-1-(4-(trifluoromethyl)benzyl) piperidine-4-carboxamide], for which the EC50 lay in the range of 100 to 1000 nM.
In turn, `N#Cc1ccc(CN2CCC(NC(=O)c3cc4cc(NC(=O)Cc5ccc(C(F)(F)F)cc5)ccc4o3)CC2)cc1` [Compound 6-54, N-(1-(4-cyanobenzyl)piperidin-4-yl)-5-(2-(4-(trifluoromethyl)phenyl)acetamido)benzofuran-2-carboxamide] registered an EC50 of 100 to 1000 nM.
Take `Cc1nnsc1C(=O)Nc1ccc2oc(C(=O)NC3CCN(Cc4ccc(C#N)cc4)CC3)cc2c1` [Compound 6-56, N-(2-(1-(4-cyanobenzyl)piperidin-4-ylcarbamoyl)benzofuran-5-yl)-4-methyl-1,2,3-thiadiazole-5-carboxamide]: the EC50 is 1000 to 10000 nM.
In the case of `N#Cc1ccc(CN2CCC(NC(=O)c3cc4cc(NC(=O)c5ccc(C#N)cc5)ccc4o3)CC2)cc1` [Compound 6-57] it was 100 to 1000 nM.
In turn, `COc1ccc(-n2cc(C(=O)Nc3ccc4oc(C(=O)NC5CCN(Cc6ccc(C#N)cc6)CC5)cc4c3)cn2)cc1` [Compound 6-59, N-(2-(1-(4-cyanobenzyl)piperidin-4-ylcarbamoyl)benzofuran-5-yl)-1-(4-methoxyphenyl)-1H-pyrazole-4-carboxamide] showed an EC50 of 100 to 1000 nM.
Compound `N#Cc1ccc(CN2CCC(NC(=O)c3cc4cc(NC(=O)c5ccc(-c6nnc[nH]6)cc5)ccc4o3)CC2)cc1` [Compound 6-60, 5-(4-(4H-1,2,4-triazol-3-yl)benzamido)-N-(1-(4-cyanobenzyl)piperidin-4-yl)benzofuran-2-carboxamide] displayed an EC50 of 1000 to 10000 nM.
`Cc1cc(C(=O)Nc2ccc3oc(C(=O)NC4CCN(Cc5ccc(C#N)cc5)CC4)cc3c2)no1` [Compound 6-61, N-(2-(1-(4-cyanobenzyl)piperidin-4-ylcarbamoyl)benzofuran-5-yl)-5-methylisoxazole-3-carboxamide] yielded an EC50 of 100 to 1000 nM.
In the case of `N#Cc1ccc(CN2CCC(NC(=O)c3cc4cc(NC(=O)c5ccc(Oc6ccc(F)cc6)nc5)ccc4o3)CC2)cc1` [Compound 6-64, N-(2-(1-(4-cyanobenzyl)piperidin-4-ylcarbamoyl)benzofuran-5-yl)-6-(4-fluorophenoxy)nicotinamide] it was 100 to 1000 nM; in that of `N#Cc1ccc(CN2CCC(NC(=O)c3cc4cc(NC(=O)c5ccc(-n6cccn6)cc5)ccc4o3)CC2)cc1` [Compound 6-65, 5-(4-(1H-pyrazol-1-yl)benzamido)-N-(1-(4-cyanobenzyl)piperidin-4-yl)benzofuran-2-carboxamide], 100 to 1000 nM.
`N#Cc1ccc(CN2CCC(NC(=O)c3cc4cc(NC(=O)c5cnn(-c6ccc(F)cc6)c5)ccc4o3)CC2)cc1` [Compound 6-66, N-(2-(1-(4-cyanobenzyl)piperidin-4-ylcarbamoyl)benzofuran-5-yl)-1-(4-fluorophenyl)-1H-pyrazole-4-carboxamide] gave an EC50 of 100 to 1000 nM.
With `N#Cc1ccc(CC(=O)Nc2ccc3oc(C(=O)NC4CCN(Cc5ccc(C#N)cc5)CC4)cc3c2)cc1` [Compound 6-67, N-(1-(4-cyanobenzyl)piperidin-4-yl)-5-(2-(4-cyanophenyl)acetamido) benzofuran-2-carboxamide], the concentration giving a half-maximal response (EC50) was in the range of 1000 to 10000 nM.
In turn, `N#Cc1ccc(CN2CCC(NC(=O)c3cc4cc(NC(=O)c5ccc(N6CCCC6)cc5)ccc4o3)CC2)cc1` [Compound 6-68, N-(1-(4-cyanobenzyl)piperidin-4-yl)-5-(4-(pyrrolidin-1-yl)benzamido)benzofuran-2-carboxamide] showed an EC50 of 100 to 1000 nM.
In the case of `N#Cc1ccc(CN2CCC(NC(=O)c3cc4cc(NC(=O)[C@H]5CC[C@@H](Oc6ccc(C#N)cc6)CC5)ccc4o3)CC2)cc1` [Compound 6-69, N-(1-(4-cyanobenzyl)piperidin-4-yl)-5-((1s,4s)-4-(4-cyanophenoxy)cyclohexanecarboxamido) benzofuran-2-carboxamide] it was under 100 nM.
